Series [1] relates to Plasmodium falciparum. Nature of the series: Antimalarial activity against Plasmodium falciparum Dd2 assessed as reduction in parasitic growth. It counts as functional, organism-based.
The subject of series [2] is Plasmodium falciparum. Kind of series: Antiplasmodial activity against Plasmodium falciparum 3D7 assessed as inhibition of parasitic growth. The format is functional, organism-based.
Series [3] can be described thus: Cytotoxicity against African green monkey Vero cells. It counts as toxicity, cell-based. The following applies: chlorocebus sabaeus.
Series [4] relates to Plasmodium falciparum. Nature of the series: Antimalarial activity against Plasmodium falciparum W2 assessed as reduction in parasite growth incubated for 48 hrs by LDH assay. The format is functional, organism-based. The following applies: W2, 48 h.
The subject of series [5] is Plasmodium falciparum. Nature of the series: Antimalarial activity against Plasmodium falciparum D6 assessed as reduction in parasite growth incubated for 48 hrs by LDH assay. It counts as functional, organism-based. The following applies: D6, 48 h.
The subject of series [6] is Plasmodium falciparum. Nature of the series: Antimalarial activity against Plasmodium falciparum K1 assessed as reduction in parasitic growth incubated for 48 hrs by Giemsa-staining counting based microscopic analysis. The format is functional, organism-based. The settings on record: K1, 48 h.
The test system of series [7] is Plasmodium falciparum. Kind of series: Antimalarial activity against Plasmodium falciparum 3D7 assessed as reduction in parasite growth incubated for 48 hrs by Giemsa-staining counting based microscopic analysis. It counts as functional, organism-based. The settings on record: 3D7, 48 h.
A short description of series [8]: Cytotoxicity against African green monkey Vero cells assessed as reduction in cell viability incubated for 48 hrs by MTT assay. It counts as toxicity, cell-based. The settings on record: chlorocebus sabaeus. In general terms: Formazan colour is commonly taken as a measure of viable cells.
The test system of series [9] is Plasmodium falciparum. Kind of series: Antimalarial activity against chloroquine-resistant Plasmodium falciparum W2 assessed as growth inhibition incubated for 48 hrs by flow cytometry based analysis. The format is functional, organism-based. The following applies: W2, 48 h.
The nature of series [10]: Cytotoxicity against African monkey Vero cells assessed as reduction in cell viability incubated for 72 hrs by MTT assay. The settings on record: chlorocebus sabaeus. The format is toxicity, cell-based.
Series [11] relates to Plasmodium falciparum. Kind of series: Antimalarial activity against Plasmodium falciparum assessed as reduction in parasite growth incubated for 48 hrs by Giemsa staining based analysis. It counts as functional, organism-based.
The subject of series [12] is Plasmodium berghei. Kind of series: Antimalarial activity against Plasmodium berghei ANKA. It counts as functional, organism-based.
The test system of series [13] is HepG2. Nature of the series: Cytotoxicity against human HepG2 cells assessed as reduction in cell viability incubated for 24 hrs by MTT assay. The format is functional.
In series [14] the test system is Plasmodium falciparum. Nature of the series: Antimalarial activity against chloroquine-sensitive Plasmodium falciparum 3D7 assessed as reduction in parasite growth incubated for 48 hrs by SYBR green assay. The following applies: 3D7, 48 h. The format is functional, organism-based.
Series [15] concerns Plasmodium falciparum. Kind of series: Antimalarial activity against multi-drug resistant Plasmodium falciparum K1 assessed as reduction in parasite growth incubated for 48 hrs by SYBR green assay. The format is functional, organism-based. The settings on record: K1, 48 h.
Series [16] concerns Plasmodium falciparum. Nature of the series: Antimalarial activity against Plasmodium falciparum assessed as parasitic growth inhibition. The format is functional, organism-based.
The subject of series [17] is Plasmodium falciparum. Kind of series: Antimalarial activity against chloroquine-sensitive Plasmodium falciparum NF54 assessed as reduction in cell growth. It counts as functional, organism-based.
Series [18] is described as follows: Cytotoxicity against African green monkey Vero cells by MTT assay. The settings on record: African green monkey (Chlorocebus sabaeus). It counts as toxicity, cell-based.
Series [19] relates to Plasmodium falciparum. Kind of series: Antiplasmodial activity against Plasmodium falciparum NF54. The format is functional, organism-based.
Series [20] relates to Plasmodium falciparum. Kind of series: Antiplasmodial activity against Plasmodium falciparum Dd2 assessed as reduction in parasitic growth incubated for 48 hrs by SYBR Green staining based fluorescence analysis. It counts as functional, organism-based. The settings on record: Dd2, 48 h.
Series [21] can be described thus: Cytotoxicity against African green monkey Vero cells assessed as reduction in cell viability measured after 24 hrs. The following applies: African green monkey (Chlorocebus sabaeus). It counts as toxicity, cell-based.
Series [22] deals with Plasmodium falciparum. Kind of series: Antiplasmodial activity against chloroquine-sensitive Plasmodium falciparum 3D7 assessed as parasitic growth inhibition incubated for 72 hrs by SYBR Green staining based fluorescence analysis. It counts as functional, organism-based. The following applies: 3D7, 72 h.
The test system of series [23] is Plasmodium falciparum. Nature of the series: Antiplasmodial activity against chloroquine-resistant Plasmodium falciparum W2 assessed as parasitic growth inhibition incubated for 72 hrs by SYBR Green staining based fluorescence analysis. The format is functional, organism-based. The following applies: W2, 72 h.

`CC(CCCNCc1ccc(-c2csc3ccc(F)cc23)cc1)Nc1ccnc2cc(Cl)ccc12` (stereo not drawn): the IC50 in [1] stood at 0.187 µM; in [2] it was 0.0823 µM.
Take `N=C(N=C(N)N)SCCCNc1cc(C(F)(F)F)nc2c(C(F)(F)F)cccc12`: the CC50 in series [3] was > 9.17 µM. The IC50 stood at 7.21 µM in series [4] and 5.54 µM in series [5].
In the case of `CCOC(=O)c1nn(CCNc2ccnc3cc(Cl)ccc23)c2c1C(c1ccccc1)C(C#N)=C(N)O2` (stereo not drawn), the EC50 in series [6] came out at 0.25 µM; in series [7], 0.19 µM. Moreover, the 50% cytotoxic concentration (CC50) at 48 h in series [8] worked out at 103 µM.
As to `C[C@@H]1CC[C@H]2[C@@H](C)C(=O)O[C@@H]3O[C@@]4(C)CC[C@@H]1[C@]32OO4` [ARTEMISININ], the EC50 in series [6] and in series [7] was 0.001 µM each time. For the same compound, in series [8], the cytotoxic concentration (CC50) at 48 h worked out at 435 µM. In addition, in series [9], the IC50 is 0.005 µM.
As to `CCN(CC)CCCC(C)Nc1ccnc2cc(Cl)ccc12` (stereo not drawn) [CHLOROQUINE], the EC50 stood at 0.33 µM in series [6] and 0.002 µM in series [7]. For the same compound, the CC50 at 72 h in series [10] was determined as 86.8 µM.
As for `COc1ccc(/C(C)=N\c2ccccc2Nc2ccnc3cc(Cl)ccc23)cc1OC`, the IC50 in [11] came out at 49.7 µM.
On to `NC(S)=NNc1ccnc2cc(Cl)ccc12`, for which the IC50 in series [11] was determined as 25.4 µM.
In series [12], `COc1ccc(OC)c2c1CC(Nc1ccnc3cc(Cl)ccc13)C2` had an IC50 of 0.48 µM.
Regarding `C#CCNc1ccnc2cc(Cl)ccc12`, the MLD50 in series [13] amounted to 407 µM. Moreover, the IC50 in series [14] turned out to be 0.377 µM; in series [15] it was 0.405 µM.
Take `CCOC(=O)c1nn(CCNc2ccnc3cc(Cl)ccc23)c2c1C(c1ccco1)C(C#N)=C(N)O2` (stereo not drawn): the EC50 in [6] was 1.61 µM; in [7], 0.113 µM. For the same compound, the CC50 at 48 h in [8] is 84.5 µM.
Take `Clc1ccc2c(NNc3ccncc3)ccnc2c1`: the IC50 in series [16] amounted to 3.75 µM.
As for `C[C@H]1[C@H](OC(=O)CCC(=O)O)O[C@@H]2O[C@@]3(C)CC[C@H]4[C@H](C)CC[C@@H]1[C@@]24OO3` [ARTESUNATE], in series [17], the IC50 was < 5.2 µM.
As to `N=C(N=C(N)N)SCCCNc1ccnc2cc(Cl)ccc12`, in series [3], the CC50 was > 11.4 µM. Moreover, in series [4], the IC50 is 2.13 µM.
Turning to `CC1(C)c2ccccc2-c2cc(Cl)c(NC(=O)C(=O)NCCCNc3ccnc4cc(Cl)ccc34)cc21`, the values for the IC50 in [18] and in series [19] were 17.7 µM and 0.326 µM, respectively.
Regarding `N=C(N=C(N)N)SCCCCNc1cc(C(F)(F)F)nc2c(C(F)(F)F)cccc12`, the CC50 in [3] was > 8.93 µM. The IC50 in series [4] and in [5] was > 8.93 µM throughout.
On to `Clc1ccc2c(NC3Cc4ccccc4C3)ccnc2c1`, for which, in [12], the IC50 is 0.6 µM.
With `O=C(O)CNc1ccnc2cc(Cl)ccc12`, the MLD50 in series [13] is >1000 µM. The IC50 in [14] and in series [15] was > 10 µM in each case.
Take `COc1ccc2nc(/C=C/c3ccncc3)cc(NC3CCCCC3)c2c1`: in series [20], the IC50 was found to be 0.277 µM.
As to `CCOC(=O)c1nn(CCNc2ccnc3cc(Cl)ccc23)c2c1C(c1ccc(O)cc1)C(C#N)=C(N)O2` (stereo not drawn), the EC50 stood at 7.12 µM in series [6] and 0.026 µM in series [7]. In addition, in [8], the 50% cytotoxic concentration (CC50) at 48 h came to 9.24 µM.
As for `Clc1ccc2c(NCCNCc3csc4ccccc34)ccnc2c1`, the IC50 in [1] is 0.0144 µM; in series [2], > 0.5 µM.
As to `COc1ccc2nc(/C=C/c3ccncc3)cc(N3CCN(C)CC3)c2c1`, the 50% inhibitory concentration (IC50) in [20] was 0.61 µM.
Still for that read-out and setting: the value for `COc1ccc2nc(/C=C/c3ccncc3)cc(N3CCCC3)c2c1` was 0.367 µM.
For `OB1OCc2ccc(OCc3cn(CCCNc4ccnc5cc(Cl)ccc45)nn3)cc21`, the IC50 at 24 h in series [21] was > 100 µM. Besides, the IC50 in series [22] is 4.13 µM; in series [23], 3.91 µM.
On to `COc1ccc(/C(C)=N/C(=S)NNc2ccnc3cc(Cl)ccc23)cc1OC`, for which the IC50 in series [11] was determined as 38.7 µM.
Same read-out and setting: as for `C/C(=N/c1ccccc1Nc1ccnc2cc(Cl)ccc12)c1ccc2ccccc2c1`, the figure is 77.6 µM.
Consider `N=C(N=C(N)N)SCCNc1cc(C(F)(F)F)nc2c(C(F)(F)F)cccc12`, for which the CC50 in [3] was > 9.42 µM. The results for the IC50 in series [4] and in [5] were 8.04 µM and 7.55 µM, respectively.
Take `C[C@H](Cc1ccccc1)Nc1ccnc2cc(Cl)ccc12`: in series [12], half-maximal inhibition (IC50) required 0.49 µM.
On to `Clc1ccc2c(Nc3ccncc3)ccnc2c1`, for which the IC50 in series [16] worked out at 4.23 µM.
On to `OB1OCc2ccc(OCc3cn(CCN4CCN(c5ccnc6cc(Cl)ccc56)CC4)nn3)cc21`, for which, in series [21], the IC50 at 24 h is 82.4 µM. For the same compound, the IC50 came to 5.31 µM in series [22] and 4.86 µM in series [23].

Broadly, the IC50 is the point on the concentration scale where inhibition reaches its midpoint. Broadly, the CC50 is the concentration at which the toxic effect on the cells reaches its halfway point. By EC50 is commonly meant the concentration needed to bring the measured effect to its halfway point.

The values are drawn from ChEMBL document CHEMBL5344418, “Recent developments in antimalarial activities of 4-aminoquinoline derivatives” (Eur J Med Chem, 2023).
